Patent US5541193A, “Heterocycle-containing macrocyclic immunomodulators” (Abbott Laboratories, priority 1995, dated 1996)
pIC50: −log10 of the molar value.

Test system: human mixed lymphocyte reaction (MLR)
Test: human mixed lymphocyte reaction (MLR) assay, immunosuppressant activity
Assay type: cell-based
Details: Table 1
Procedure: […] Assay of Biological Activity
The immunosuppressant activity of the compounds of the present invention was determined using the human mixed lymphocyte reaction (MLR) assay described by Kino, T. et al. in Transplantation Proceedings, XIX(5):36-39,Suppl. 6 (1987).

SMILES	pIC50
CC[C@@H]1/C=C(\C)C[C@H](C)C[C@H](OC)[C@H]2O[C@@](O)(C(=O)C(=O)N3CCCC[C@H]3C(=O)O[C@H](/C(C)=C/[C@@H]3CC[C@H](n4ccnn4)[C@H](OC)C3)[C@H](C)[C@@H](O)CC1=O)[C@H](C)C[C@@H]2OC [Example 5]	8.61
CC[C@@H]1/C=C(\C)C[C@H](C)C[C@H](OC)[C@H]2O[C@@](O)(C(=O)C(=O)N3CCCC[C@H]3C(=O)O[C@H](/C(C)=C/[C@@H]3CCC(OC)C(n4ccnn4)C3)[C@H](C)[C@@H](O)CC1=O)[C@H](C)C[C@@H]2OC (some centres unmarked) [Example 6]	9.36
CC[C@@H]1/C=C(\C)C[C@H](C)C[C@H](OC)[C@H]2O[C@@](O)(C(=O)C(=O)N3CCCC[C@H]3C(=O)O[C@H](/C(C)=C/[C@@H]3CC[C@H](n4nnc5ccccc54)[C@H](OC)C3)[C@H](C)[C@@H](O)CC1=O)[C@H](C)C[C@@H]2OC [Example 7]	9.68
CC[C@@H]1/C=C(\C)C[C@H](C)C[C@H](OC)[C@H]2O[C@@](O)(C(=O)C(=O)N3CCCC[C@H]3C(=O)O[C@H](/C(C)=C/[C@@H]3CCC(OC)C(n4nnc5ccccc54)C3)[C@H](C)[C@@H](O)CC1=O)[C@H](C)C[C@@H]2OC (some centres unmarked) [Example 8]	8.75
CC[C@@H]1/C=C(\C)C[C@H](C)C[C@H](OC)[C@H]2O[C@@](O)(C(=O)C(=O)N3CCCC[C@H]3C(=O)O[C@H](/C(C)=C/[C@@H]3CC[C@H](n4nnc5cc([N+](=O)[O-])ccc54)[C@H](OC)C3)[C@H](C)[C@@H](O)CC1=O)[C@H](C)C[C@@H]2OC [Example 9]	9.64
CC[C@@H]1/C=C(\C)C[C@H](C)C[C@H](OC)[C@H]2O[C@@](O)(C(=O)C(=O)N3CCCC[C@H]3C(=O)O[C@H](/C(C)=C/[C@@H]3CC[C@H](n4nnc5ccc([N+](=O)[O-])cc54)[C@H](OC)C3)[C@H](C)[C@@H](O)CC1=O)[C@H](C)C[C@@H]2OC [Example 10]	9.66
CC[C@@H]1/C=C(\C)C[C@H](C)C[C@H](OC)[C@H]2O[C@@](O)(C(=O)C(=O)N3CCCC[C@H]3C(=O)O[C@H](/C(C)=C/[C@@H]3CCC(OC)C(n4nnc5cc([N+](=O)[O-])ccc54)C3)[C@H](C)[C@@H](O)CC1=O)[C@H](C)C[C@@H]2OC (some centres unmarked) [Example 11]	8.81
CC[C@@H]1/C=C(\C)C[C@H](C)C[C@H](OC)[C@H]2O[C@@](O)(C(=O)C(=O)N3CCCC[C@H]3C(=O)O[C@H](/C(C)=C/[C@@H]3CCC(OC)C(n4nnc5ccc([N+](=O)[O-])cc54)C3)[C@H](C)[C@@H](O)CC1=O)[C@H](C)C[C@@H]2OC (some centres unmarked) [Example 12]	9.03
CC[C@@H]1/C=C(\C)C[C@H](C)C[C@H](OC)[C@H]2O[C@@](O)(C(=O)C(=O)N3CCCC[C@H]3C(=O)O[C@H](/C(C)=C/[C@@H]3CC[C@H](n4cncn4)[C@H](OC)C3)[C@H](C)[C@@H](O)CC1=O)[C@H](C)C[C@@H]2OC [Example 13]	9.21
CC[C@@H]1/C=C(\C)C[C@H](C)C[C@H](OC)[C@H]2O[C@@](O)(C(=O)C(=O)N3CCCC[C@H]3C(=O)O[C@H](/C(C)=C/[C@@H]3CC[C@H](n4cnc([N+](=O)[O-])n4)[C@H](OC)C3)[C@H](C)[C@@H](O)CC1=O)[C@H](C)C[C@@H]2OC [Example 15]	10.40
CC[C@@H]1/C=C(\C)C[C@H](C)C[C@H](OC)[C@H]2O[C@@](O)(C(=O)C(=O)N3CCCC[C@H]3C(=O)O[C@H](/C(C)=C/[C@@H]3CCC(OC)C(n4cnc([N+](=O)[O-])n4)C3)[C@H](C)[C@@H](O)CC1=O)[C@H](C)C[C@@H]2OC (some centres unmarked) [Example 16]	9.00
